Results as given in patent publication US4812409A, “Hydrolyzable fluorescent substrates and analytical determinations using same” (Eastman Kodak Company, priority 1986, dated 1989).

Assays:
[1] = tested on: Enterobacter cloacae (ATCC 23355); test: Detection of Enterobacter cloacae with β-D-xylosidase substrate, fluorescence; type: cell-based; conditions: for Relative Fluorescence: 37° C., ex 540 nm, em 620 nm
Description: (§1) Cells were prepared as follows. A β-D-xylosidase induction medium was prepared by adding the following materials in order to 350 μl of 0.1 molar sodium, potassium phosphate buffer (pH 7.0), 25 μl 5% yeast extract, 50 μl of 4% (NH4)2 HPO4 and 1% KCl, 50 μl 0.0075% MnSO4.H2 O and 0.01% FeSO4.7H2 O. This mixture was autoclaved for 30 minutes, then cooled. Just before incubation, 25 μl of 20% xylose solution and 2% MgSO4.7H2 O, which had been filter sterilized or autoclaved separately, were added. Klebsiella pneumoniae (ATCC 13882) and Enterobacter cloacae (ATCC 23355) were both grown in this medium for 18 hours at 37° C. Ten milliliters of cells were harvested by centrifugation, washed, and resuspended in 0.1 molar potassium phosphate buffer (pH 7.0). The cell concentration was adjusted to approximately 5×10^8 cells/ml (optical density 0.800 at 620 nm).
(§2) In two milliliters HA 96 well titration plates were placed 200 μl of the cell suspension. To plate 1 was added 100 μl of the substrate solution of Example 1 without surfactant (10 μg/μl N,N-dimethylformamide in 9 μl potassium phosphate buffer), to plate 2 was added the substrate solution with surfactant (10 μg/μl N,N-dimethylformamide and 200 μl TRITON X-100 surfactant in 9 μl potassium phosphate buffer).
(§3) After the substrate was added, an initial reading was taken, the plates were kept at 37° C., and additional readings were taken after 5, 10, 15, 30, and 60 minutes. The average of three replicates was used. A commercially available Dynatech Microfluor Reader, modified with an excitation filter at 540 nm, an emission filter at 620 nm, a 200-watt tungsten lamp and a heating element, was used to measure fluorescence.

[2] = tested on: Klebsiella pneumoniae (ATCC 13882); test: Detection of Klebsiella pneumoniae with β-D-xylosidase substrate, fluorescence; type: cell-based; conditions: for Relative Fluorescence: 37° C., ex 540 nm, em 620 nm
Description: as §1, §2, §3

[3] = Millititer Plate 1, without surfactant, 0 min
[4] = Millititer Plate 1, without surfactant, 5 min
[5] = Millititer Plate 1, without surfactant, 10 min
[6] = Millititer Plate 1, without surfactant, 15 min
[7] = Millititer Plate 1, without surfactant, 30 min
[8] = Millititer Plate 1, without surfactant, 60 min
[9] = Millititer Plate 2, with TRITON X-100 surfactant, 0 min
[10] = Millititer Plate 2, with TRITON X-100 surfactant, 5 min
[11] = Millititer Plate 2, with TRITON X-100 surfactant, 10 min
[12] = Millititer Plate 2, with TRITON X-100 surfactant, 15 min
[13] = Millititer Plate 2, with TRITON X-100 surfactant, 30 min
[14] = Millititer Plate 2, with TRITON X-100 surfactant, 60 min
[15] = both substrate solutions (with and without surfactant)

SMILES: O=C1C=Cc2ccc(O[C@@H]3OC[C@@H](O)[C@H](O)[C@H]3O)c3cccc1c23 [Example 1, 1-(6-Oxyphenalenone)-β-D-xylopyranose]
- Relative Fluorescence [1, 3]: 525
- Relative Fluorescence [1, 4]: 684
- Relative Fluorescence [1, 5]: 925
- Relative Fluorescence [1, 6]: 1150
- Relative Fluorescence [1, 7]: 2245
- Relative Fluorescence [1, 8]: 2717
- Relative Fluorescence [1, 9]: 586
- Relative Fluorescence [1, 10]: 902
- Relative Fluorescence [1, 11]: 1341
- Relative Fluorescence [1, 12]: 1795
- Relative Fluorescence [1, 13]: 2626
- Relative Fluorescence [1, 14]: 3003
- Time at which the microorganism can be detected [1, 15]: 15 min
- Relative Fluorescence [2, 3]: 500
- Relative Fluorescence [2, 4]: 585
- Relative Fluorescence [2, 5]: 698
- Relative Fluorescence [2, 6]: 752
- Relative Fluorescence [2, 7]: 1205
- Relative Fluorescence [2, 8]: 1686
- Relative Fluorescence [2, 9]: 557
- Relative Fluorescence [2, 10]: 635
- Relative Fluorescence [2, 11]: 741
- Relative Fluorescence [2, 12]: 869
- Relative Fluorescence [2, 13]: 1232
- Relative Fluorescence [2, 14]: 1976
- Time at which the microorganism can be detected [2, 15]: 15 min
